Laboratory results as given in PubChem BioAssay AID1549 (Sanford-Burnham Center for Chemical Genomics, 2009).
Activity calls are given as the source filed them. The rule behind the calls is not given here.

Each molecule was assayed against Influenza A virus M2 proton channel (A/TW/4845/1999 H1N1) (assay: NMR binding screen, influenza A virus M2 proton channel, Kd (AID 1549)). Settings: M2 protein.

| Compound | Kd |
| --- | --- |
| CCc1ccccc1NC(=O)c1ccoc1C | > 4 mM (inactive) |
| C=CCNC(=O)c1ccc(Cl)cc1Cl | > 4 mM (inactive) |
| COC(=O)[C@@H]1OC(=O)C2OC23[C@@]1(C)CCC1[C@@]2(C)CCC(=O)C(C)(C)C2C[C@@H](OC(C)=O)[C@]13C (stereo not given in full) | > 4 mM (inactive) |
| NC(Cn1ccc(=O)c(O)c1)C(=O)O (stereo not given) | > 4 mM (inactive) |
| CC1CCC2(OC1)OC1CC3C4CCC5C[C@@H](O)CCC5(C)C4=CCC3(C)C1[C@@H]2C (stereo not given in full) | > 4 mM (inactive) |
| CC1=C(CCC(=O)O)c2cc3nc(cc4[nH]c(cc5[nH]c(cc1n2)c(C)c5C(C)O)c(C)c4C(C)O)C(C)=C3CCC(=O)O (stereo not given) | > 4 mM (inactive) |
| Cc1noc(C)c1C(=O)N1CCC2(CC1)OCCO2 | > 4 mM (inactive) |
| Nc1ccc(S(=O)(=O)Nc2nccs2)cc1 | > 4 mM (inactive) |
| O=C(Nc1ccccc1)N1CCOCC1 | > 4 mM (inactive) |
| OCc1cccc2nonc12 | > 4 mM (inactive) |
| Nc1cc(C(F)(F)F)ccc1N1CCOCC1 | > 4 mM (inactive) |
| COc1cc2c(cc1-c1cc3cc4ccoc4cc3oc1=O)OCO2 | > 4 mM (inactive) |
| NS(=O)(=O)c1ccc(NC(=O)c2ccccc2F)cc1 | > 4 mM (inactive) |
| CC(=O)c1cccc(NS(=O)(=O)N2CCCCC2)c1 | > 4 mM (inactive) |
| O=C(NCc1cccc(Cl)c1)c1cccnc1 | > 4 mM (inactive) |
| Cc1cc(C)n(-c2nc(N)cc(=O)[nH]2)n1 | > 4 mM (inactive) |
| CN1CCC(N(C)C2CCN(C)CC2)CC1 | > 4 mM (inactive) |
| O=c1ccn([C@@H]2O[C@H](COP(=O)(O)OP(=O)(O)OP(=O)(O)O)[C@@H](O)[C@H]2O)c(=O)[nH]1 | > 4 mM (inactive) |
| CC1CN=C(Nc2ccccc2)S1 (stereo not given) | > 4 mM (inactive) |
| CNC(=O)C(=O)Nc1ccc(C)c(C)c1 | > 4 mM (inactive) |
| CN(C)S(=O)(=O)NCc1ccc2c(c1)OCO2 | > 4 mM (inactive) |
| O=C(c1ccco1)N1CCNCC1 | > 4 mM (inactive) |

| Compound | Kd |
| --- | --- |
| Cc1nc(-c2ccccc2)ncc1CO | > 4 mM (inactive) |
| COC(=O)C[C@H]1C2(C)CC34OC5(C)O[C@@]6([C@H](OC)C(OC(=O)C(C)C)[C@]7(C)C(/C(=C(/OC)C(C)C)C(=O)O[C@H]7c7ccoc7)[C@@]6(O5)[C@H](OC)[C@@]3(OC)C2OC(C)=O)[C@]14C (stereo not given in full) | > 4 mM (inactive) |
| COC[C@]12CN(C=O)C3[C@@H]4[C@H](OC)C1[C@]3(C1CC3(O)C(OC)C(O)C4(OC(C)=O)C1C3OC(=O)c1ccccc1)[C@@H](OC)C[C@H]2O (stereo not given in full) | > 4 mM (inactive) |
| O=C(c1ccco1)N1C(=O)c2cccc3cccc1c23 | > 4 mM (inactive) |
| Cc1nn(-c2ccccc2)c(Cl)c1C(N)=O | > 4 mM (inactive) |
| Cn1nnc2c(Cl)ncnc21 | > 4 mM (inactive) |
| COc1ccc(C(C)=O)c(O)c1 | > 4 mM (inactive) |
| COc1ccc(-c2noc(-c3ccco3)n2)cc1OC | > 4 mM (inactive) |
| CNC(=O)c1cc(S(=O)(=O)N(C)C)ccc1Cl | > 4 mM (inactive) |
| C[C@@H]1C(=O)OC2[C@H](O)C34[C@@H]5OC(=O)[C@@]3(O[C@@H]3OC(=O)[C@H](O)[C@@]34[C@H](C(C)(C)C)[C@H]5O)[C@]21O (stereo not given in full) | > 4 mM (inactive) |
| O=C(O)c1cn(-c2ccccc2)nc1-c1cccnc1 | > 4 mM (inactive) |
| CC(C)(OC(=O)c1ccccc1)[C@@H]1Cc2cc3ccc(=O)oc3cc2O1 | > 4 mM (inactive) |
| CN(C)C(=O)c1ccc(-c2n[nH]c(=O)c3ccccc23)cc1 | > 4 mM (inactive) |
| CN(C(=O)NC1CCS(=O)(=O)C1)C1CCCCC1 (stereo not given) | > 4 mM (inactive) |
| CC(C)=CC(=O)Nc1ccc(S(N)(=O)=O)cc1 | > 4 mM (inactive) |
| CC1(C)Cc2nc3n[nH]c(N)c3cc2CO1 | > 4 mM (inactive) |
| O=C(O)CCCNC(=O)c1ccccc1C(=O)O | > 4 mM (inactive) |
| C[C@]12CC(=O)C3C(CC[C@@H]4C[C@H](O)CC[C@]34C)C1CC[C@]2(O)C(=O)CO (stereo not given in full) | > 4 mM (inactive) |
| O=C(Nc1c[nH]c(=O)[nH]c1=O)c1cccs1 | > 4 mM (inactive) |
| O=C(NCO)c1ccc([N+](=O)[O-])cc1 | > 4 mM (inactive) |
| NC1=NC(=O)/C(=C\c2cccc(C(=O)O)c2)S1 | > 4 mM (inactive) |
| O=c1c2ccccc2nc2n1CCS2 | > 4 mM (inactive) |

| Compound | Kd |
| --- | --- |
| CC(=O)c1nnc2cc(C)nn2c1C | > 4 mM (inactive) |
| CC(=O)Nc1ccc(S(=O)(=O)NCC2CCCO2)cc1 (stereo not given) | > 4 mM (inactive) |
| Cn1c(O)c(C2=NC(=S)NC2=O)c2ccccc21 | > 4 mM (inactive) |
| CCCCCC(=O)Cc1cc(O)cc(O)c1C(=O)Oc1cc(CC(=O)CCCCC)c(C(=O)O)c(OC)c1 | > 4 mM (inactive) |
| C(=C\c1ccccc1)/C=N/n1cnnc1 | > 4 mM (inactive) |
| COc1nc(C)ccc1-c1noc(-c2ccncc2)n1 | > 4 mM (inactive) |
| CC(C)(C)C(=O)Nc1nnc(SCC(N)=O)s1 | > 4 mM (inactive) |
| O=C1N=C(N2CCOCC2)S/C1=C\c1cccnc1 | > 4 mM (inactive) |
| COc1cc2c(c(OC)c1OC)-c1ccc(OC)c(=O)cc1[C@@H](NC(C)=O)CC2 | > 4 mM (inactive) |
| N=c1n(N)c2ccccc2n1CCO | > 4 mM (inactive) |
| CCC(=O)NC(=S)Nc1ccc(C(N)=O)cc1 | > 4 mM (inactive) |
| O=c1cc(CO)oc(CN2CCCCC2)c1O | > 4 mM (inactive) |
| Cc1occc(=O)c1O | > 4 mM (inactive) |
| CC1(C)CC2(CCO1)NCCN1C(=O)CSC12 (stereo not given) | > 4 mM (inactive) |
| O=S(=O)(Nc1cccnc1Cl)c1ccccc1 | > 4 mM (inactive) |
| NC(=O)CSc1ccc2nnc(-c3cccs3)n2n1 | > 4 mM (inactive) |
| Cc1cc(=O)n2ccc(CN3CCOCC3)c(O)c2n1 | > 4 mM (inactive) |
| OC1CCNC2CCCCC12 (stereo not given) | > 4 mM (inactive) |
| Clc1ccccc1OCc1nc(-c2ccccn2)no1 | > 4 mM (inactive) |
| COC(=O)C[C@H]1C(C)(C)C(=O)[C@@H]2CC3C4=CC(=O)O[C@@H](c5ccoc5)[C@]4(C)CCC3C1(C)C2=O (stereo not given in full) | > 4 mM (inactive) |
| O=C(O)c1csc2ccccc12 | > 4 mM (inactive) |
| O=C(NC(=S)NC1CCSC1=O)c1ccco1 (stereo not given) | > 4 mM (inactive) |

| Compound | Kd |
| --- | --- |
| CN(C)S(=O)(=O)c1ccc(C(=O)NN)cc1 | > 4 mM (inactive) |
| C=C1C2=CC(=O)O[C@@H](c3ccoc3)[C@]2(C)CCC1[C@@]1(C)C=CC(=O)C(C)(C)[C@@H]1CC(=O)OC (stereo not given in full) | > 4 mM (inactive) |
| O=C(Cc1ccccc1)Nc1c[nH]c(=O)[nH]c1=O | > 4 mM (inactive) |
| Cc1ccc(N2CCN(C(=O)c3ccccc3)CC2)c(C)c1 | > 4 mM (inactive) |
| Cc1cc2cc(N)ccc2[nH]1 | > 4 mM (inactive) |
| O=C1COc2ccccc2C(=O)N1 | > 4 mM (inactive) |
| NC(=O)CN1CCCCCC1=O | > 4 mM (inactive) |
| CNC(=O)C(=O)NCc1ccc(C)cc1 | > 4 mM (inactive) |
| COCC(=O)Nc1c(C(N)=O)oc2ccccc12 | > 4 mM (inactive) |
| c1nnc2c3c4c(sc3ncn12)CCCC4 | > 4 mM (inactive) |
| COC(=O)c1c(C)c2c(c(C)c1O)OC(=O)c1c(C)c(Cl)c(O)c(Cl)c1O2 | > 4 mM (inactive) |
| CC(=O)Oc1c(C)cc(O)c2ccccc12 | > 4 mM (inactive) |
| Cc1cc(C)n(/N=C\c2cccs2)c(=O)c1C(N)=O | > 4 mM (inactive) |
| CC1(C)NC(=O)N(CCOc2ccc3c(c2)CCC3)C1=O | > 4 mM (inactive) |
| O=S(=O)(Nc1cccc2cn[nH]c12)c1ccc(F)cc1 | > 4 mM (inactive) |
| O=C1NC(=O)C(c2ccccc2)C(=O)N1 | > 4 mM (inactive) |
| Cc1cc(C)n(C/C=C/Cn2nc(C)cc2C)n1 | > 4 mM (inactive) |
| CCOc1ccc(C)cc1S(=O)(=O)n1ccnc1 | > 4 mM (inactive) |
| O=C1C2CCCCC2C(=O)N1c1nccs1 (stereo not given) | > 4 mM (inactive) |
| COc1c(OC)c2occc2c2oc(=O)ccc12 | > 4 mM (inactive) |
| CN(C)N1C(=O)C2C3C=CC(O3)C2C1=O (stereo not given) | > 4 mM (inactive) |
| O=C(O)C(O)C(O)C(O)C(O)C(=O)O (stereo not given) | > 4 mM (inactive) |

| Compound | Kd |
| --- | --- |
| CCSc1nc(C)c(CC)c(C)c1C(N)=O | > 4 mM (inactive) |
| COCCn1cnc2cc(C)c(C)cc21 | > 4 mM (inactive) |
| O=S1(=O)CCC(NC(=S)Nc2ccccc2)C1 (stereo not given) | > 4 mM (inactive) |
| O=C(O)CCC(=O)Nc1ccccc1F | > 4 mM (inactive) |
| O=C(c1ccccc1F)N1CCN(c2ccccc2)CC1 | > 4 mM (inactive) |
| CCC(C)C(=O)O[C@@H]1C[C@@]2(C)[C@H](c3ccoc3)OC(=O)CC23OC2(C)OC34[C@H](OC(=O)C(C)C)[C@@]3(O)[C@@H](OC(=O)C5(C)OC5C)[C@@]5(C)C[C@]3(O)[C@@](C)([C@H]5CC(=O)OC)C14O2 (stereo not given in full) | > 4 mM (inactive) |
| O=C1CN(C(=O)CN2CCOCC2)c2ccccc2N1 | > 4 mM (inactive) |
| O=C(O[C@@H]1Cc2c(O)cc(O)cc2O[C@@H]1c1cc(=O)c(O)c2c(O)c(O)cc([C@H]3Oc4cc(O)cc(O)c4C[C@H]3O)c2c1)c1cc(O)c(O)c(O)c1 | > 4 mM (inactive) |
| NC(=O)C1CCN(C(=S)Nc2ccccc2)CC1 | > 4 mM (inactive) |
| CC(=O)Nc1ccc(NC(C)=O)c(C(F)(F)F)c1 | > 4 mM (inactive) |
| O=c1[nH]c2ccc(S(=O)(=O)NC3CC3)cc2[nH]1 | > 4 mM (inactive) |
| C/C(=C\CO)CC[C@H](C)CCC[C@H](C)CCCC(C)C | > 4 mM (inactive) |
| O=C(NC1CC1)c1ccccc1[N+](=O)[O-] | > 4 mM (inactive) |
| c1ccc(-c2nsc(N3CCNCC3)n2)cc1 | > 4 mM (inactive) |
| Cn1nnc2cc(CO)ccc21 | > 4 mM (inactive) |
| Oc1ccccc1N=Cc1cccnc1 | > 4 mM (inactive) |
| Cc1cccc(N2CCN(C(=O)c3ccncc3)CC2)c1C | > 4 mM (inactive) |
| Cc1cc(C(=O)N2CCN(c3ccccn3)CC2)c(C)o1 | > 4 mM (inactive) |
| CC(=O)Nc1cc(S(=O)(=O)N(C)C)ccc1Cl | > 4 mM (inactive) |
| CSc1nc(-c2ccccc2)ccc1C(N)=O | > 4 mM (inactive) |
| Cc1nnc(NC(=O)C(C)Sc2nncn2C)s1 (stereo not given) | > 4 mM (inactive) |
| O=C(CN1C(=O)CCC1=O)c1ccccc1 | > 4 mM (inactive) |
